Measurements reported in article PMC5048659 (Arthritis Research & Therapy, 2016).
Entries after “also recorded” stand apart in the source; their conditions may differ.

Assays:
OAT1 = molecular target: T1, OAT1 (Homo sapiens, UniProt Q4U2R8); experiment: OAT1 6-carboxyfluorescein transport in transfected HEK-293T cells; type: cell-based; conditions: 5 μM 6-carboxyfluorescein, 2 min; mean ± SEM; read-out: Potency (IC50) against OAT1
T1 construct: host or cells: HEK-293T, transient transfection
T1 sequence (Q4U2R8 1-563): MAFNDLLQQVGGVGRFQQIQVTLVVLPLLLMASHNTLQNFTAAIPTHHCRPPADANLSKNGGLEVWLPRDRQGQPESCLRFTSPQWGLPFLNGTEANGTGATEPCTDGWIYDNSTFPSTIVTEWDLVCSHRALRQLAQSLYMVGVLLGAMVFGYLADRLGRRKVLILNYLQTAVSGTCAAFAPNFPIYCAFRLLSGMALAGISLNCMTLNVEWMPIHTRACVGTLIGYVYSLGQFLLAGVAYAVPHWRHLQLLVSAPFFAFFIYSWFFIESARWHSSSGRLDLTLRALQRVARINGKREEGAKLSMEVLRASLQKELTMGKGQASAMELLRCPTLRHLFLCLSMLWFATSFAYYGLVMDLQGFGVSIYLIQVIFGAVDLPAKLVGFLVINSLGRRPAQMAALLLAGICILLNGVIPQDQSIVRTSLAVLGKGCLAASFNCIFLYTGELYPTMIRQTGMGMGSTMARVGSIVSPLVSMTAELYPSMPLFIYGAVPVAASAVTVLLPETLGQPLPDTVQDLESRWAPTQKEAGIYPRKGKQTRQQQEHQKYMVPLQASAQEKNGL
Experimental: The cells were washed three times in a buffer containing 125 mM NaCl and 25 mM HEPES, pH 7.3, and then lysed in 1 M sodium hydroxide prior to fluorescence measurement.

OAT1 and OAT3 = conditions: in vivo; cited from earlier work
GLUT9 (SLC2A9v2/GLUT9ΔN) = molecular target: T2, GLUT9 (SLC2A9v2/GLUT9ΔN) (Homo sapiens, UniProt Q9NRM0); experiment: GLUT9 urate transport in cRNA-injected oocytes; type: cell-based
T2 construct: expressed in transfected cells
T2 sequence (Q9NRM0 1-511 isoform Q9NRM0-2): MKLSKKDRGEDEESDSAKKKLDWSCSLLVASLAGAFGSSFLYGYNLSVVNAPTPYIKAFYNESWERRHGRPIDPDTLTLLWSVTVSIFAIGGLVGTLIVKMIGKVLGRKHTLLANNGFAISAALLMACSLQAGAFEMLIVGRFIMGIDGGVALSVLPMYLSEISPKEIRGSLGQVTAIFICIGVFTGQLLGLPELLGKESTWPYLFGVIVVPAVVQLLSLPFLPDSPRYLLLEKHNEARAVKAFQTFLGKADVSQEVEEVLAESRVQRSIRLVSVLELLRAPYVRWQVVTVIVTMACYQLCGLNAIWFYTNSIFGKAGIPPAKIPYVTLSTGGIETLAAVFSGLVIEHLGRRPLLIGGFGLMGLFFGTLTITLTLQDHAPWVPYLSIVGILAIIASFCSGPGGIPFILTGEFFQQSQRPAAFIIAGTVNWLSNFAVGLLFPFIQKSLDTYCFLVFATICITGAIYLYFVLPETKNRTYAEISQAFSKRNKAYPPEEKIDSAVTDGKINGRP
Experimental: For GLUT9, SLC2A9v2/GLUT9ΔN in pCMV6/neo was linearized with XmaI and NotI and cRNA transcribed using the mMessage mMachine T7 kit (Ambion). Oocytes were injected with either water or 25 ng cRNA and incubated for 3 to 5 days in ND96 buffer. For each point, 10 oocytes were incubated with 100 μM ^14C-uric acid in ND96 buffer with and without test compounds at room temperature for 60 minutes. The oocytes were then washed three to four times in ice-cold ND96 buffer and lysed prior to scintillation counting.

healthy volunteers = experiment: Clinical effect on fractional excretion of uric acid (phase 1 RDEA594-109); type: in vivo, human; conditions: for Peak FEUA: within 6 hours, baseline 5.8 %
Experimental: In each treatment period, plasma samples were collected within 30 minutes before dosing (pre-dose) and at 0.5, 1, 1.5, 2, 3, 4, 5, 6, 8, 10, 12, 16, 24, 30, 36, and 48 hours post-dose. Urine (total catch) was collected pretreatment at hours –24 to –18, –18 to –12, and –12 to 0, and post-dose at hours 0 to 6, 6 to 12, 12 to 24, 24 to 30, 30 to 36, and 36 to 48.
After protein precipitation of the samples, lesinurad levels in plasma and urine were measured at Ardea Biosciences by quantitative high performance liquid chromatography with tandem mass spectrometry. […] The parameters from individual profiles of lesinurad were determined using noncompartmental methods. Urine samples were analyzed for uric acid and creatinine using enzymatic methods by Covance Clinical Research Unit (Dallas, TX, USA), and pharmacodynamic (PD) parameters were determined by Covance Clinical Research Unit using SAS, Version 8.2 (SAS Institute Inc). Calculated PD parameters for uric acid included urinary excretion, renal clearance, and FEUA. FEUA was calculated by dividing the uric acid clearance by the creatinine clearance.

SMILES: O=C(O)CSc1nnc(Br)n1-c1ccc(C2CC2)c2ccccc12 [Lesinurad, 2-((5-bromo-4-(4-cyclopropylnaphthalen-1-yl)-4H-1,2,4-triazol-3-yl)thio) acetic acid]
- IC50 (OAT1): 3.9 ± 0.94 µM
- Effect on renal clearance and PD of the OAT substrate furosemide (OAT1 and OAT3): no effect
- IC50 (GLUT9 (SLC2A9v2/GLUT9ΔN); 100 μM 14C-uric acid, 60 min, read-out: Potency against GLUT9): > 100 µM
- Effect on GLUT9 urate transport (GLUT9 (SLC2A9v2/GLUT9ΔN); compound at up to 100 μM): no effect; also recorded: does not inhibit
- EC50 (healthy volunteers; Homo sapiens, single 200-, 400- or 600-mg doses, healthy volunteers, read-out: Half-maximal effective plasma concentration for elevating FEUA): 13 µM
- FEUA in some individuals with high plasma lesinurad (healthy volunteers; healthy volunteers, single doses): up to 35%
- Elevation of FEUA (healthy volunteers; single 200-mg dose, after 6 hours, p < 0.001): 3.6 fold
- Peak FEUA (healthy volunteers; single 200-mg oral dose): 21.8%
- Peak FEUA (healthy volunteers; single 400-mg oral dose): 26.7%
- Peak FEUA (healthy volunteers; single 600-mg oral dose): 32.3%
